Assay results from patent US5554653A, “Inhibitors of HIV protease useful for the treatment of AIDS” (Eli Lilly and Company, priority 1992, dated 1996).
In brackets after ≈: the same amount, converted by molar mass.

What follows are molecules tested against T1, HIV-1 protease (Human immunodeficiency virus type 1 group M subtype B, UniProt P04585) (assay: biochemical). Settings: read-out: Fluorescence Assay IC3.
T1 construct: Purified HIV-1 protease was obtained as described above; made in house; host or cells: E. coli K12 L507/pHP10D (NRRL B-18560)
Type: biochemical
Experimental: C. Preparation of Protease Fraction
A culture of E. coli K12 L507/pHP10D was grown to mid-log phase at 32° C. in LB media containing 12.5 μg/ml tetracycline. The cultivation temperature was quickly elevated to 40° C. to induce gene expression, and the cells were allowed to grow for 2.5 hours at this temperature before the culture was quickly chilled on ice. The cells were centrifuged and the cell pellet was resuspended in 20 mL 50 mmol MES buffer (pH 6.0) containing 1 mmol EDTA, 1 mmol DTT, 1 mmol PMSF and 10% glycerol ("Buffer A"). Cells were lysed by sonication using a Fischer Model 300 Dismembrator and a microtip probe. Following centrifugation at 27,000×g, the supernatant was diluted to a total volume of 60 mL with Buffer A and loaded onto a 2.0×19 cm QAE-Sepharose column (1 mL/min, 4° C.), that had been equilibrated in Buffer A. The column was washed isocratically for 180 min and then eluted with a gradient eluent of 0-1.0M sodium chloride in Buffer A over 120 min. Enzymatic activity was measured by HPLC using the synthetic peptide SQNYPIV as described in Margolin et al., Biochem. Biophys. Res. Commun., 167, 554-560 (1990); the production of the p1 peptide (SQNY) was measured.
The active fractions were combined, made 1.2M in ammonium sulfate, and applied to a 2.0×18 cm hexyl agarose column that had been equilibrated in Buffer A containing 1.2M ammonium sulfate. The sample was loaded at a flow rate of 1 mL/min at 4° C., washed with the equilibration buffer for 240 min (1 mL/min) and then eluted using a reverse linear gradient of 1.2-0M ammonium sulfate in Buffer A for 120 min at the same flow rate. The column was then washed isocratically in Buffer A for 120 min.
The active fractions were combined, concentrated to 10 mL using an Amicon stirred cell with a YM-10 membrane and then applied to a MonoS cation exchange column (1.0×10 cm) that had been equilibrated in Buffer A. The sample was loaded at a flow rate of 1 mL/min at 25° C. After washing isocratically for 30 min, the protease was eluted using a linear gradient of 0-0.45M sodium chloride in Buffer A over 40 min. The column was washed isocratically in Buffer A containing 0.45M sodium chloride for 30 min.
The active fractions were combined and concentrated to 200 μL using an Amicon stirred cell and a YM-10 membrane and then the protease was applied to a Superose 6 size exclusion column equilibrated in Buffer A containing 0.1M sodium chloride.
The purified peptide was labeled with a fluorescent marker at the C-terminal end for use in the Pandex assay. N^α -Biotin-[…]OH SEQ ID NO:3. (1.206 g, 0.936 mmol) was dissolved in 100 mL of 0.1M sodium borate, pH 9.5. Then, a solution of 3 g (7.7 mmol) of fluorescein isothiocyanate in 15 mL dimethyl sulfoxide was added to the reaction mixture in 10 equal portions over two hours. The resulting mixture was allowed to react for one hour after the final addition. The solution was adjusted to pH 3 using 5N hydrochloric acid, resulting in the formation of a precipitate which was removed by centrifugation.
E. Fluorescence HIV-1 Protease Inhibitor Assay
The following buffers and solutions are used in the Fluorescence HIV-1 Protease Inhibitor Assay:
MES-ALB Buffer: 0.05M 4-morpholineethane
Avidin Coated 0.1% solution of Fluoricon
Beads Solution: Avidin Assay Particles
(Avidin conjugated to solid
polystyrene beads, 0.6-0.8
microns in diameter in TBSA
27 IU/mL of purified HIV-1
protease in MES-ALB buffer
(1 IU equals the amount of
enzyme required to hydrolyze
1 μmole of substrate per
To each well of a round bottom, 96-well plate is added 20 μL of the Enzyme Solution followed by 10 μL of the compound to be evaluated in a 20% aqueous dimethylsulfoxide solution. Purified HIV-1 protease was obtained as described above.

Compound | IC3 [µg/mL]
CC(C)(C)NC(=O)c1ccccc1C[C@@H](O)[C@H](Cc1ccccc1)NC(=O)[C@@H](CSCc1ccccc1)NC(=O)OC(C)(C)C [Example 19A, [2R-(2R*, 3S*, 6S*)]-N-t-Butyl-2-[2-hydroxy-3-phenylmethyl-4-aza-5-oxo-6-N (t-butoxycarbonyl)amino-7-benzylthio]heptyl benzamide] | 1

Same assay, conditions: read-out: Fluorescence Assay IC5

Compound | IC5 [µg/mL]
CC(C)(C)NC(=O)c1ccccc1C[C@@H](O)[C@H](Cc1ccccc1)NC(=O)[C@H](N)COCc1ccccc1 [Example 13B, [2R-(2R*,3S*,6R*)]-N-t-Butyl-2-[2-hydroxy-3-phenylmethyl-4-aza-5-oxo-6-amino-7-benzyloxy]heptyl benzamide] | 1

Same assay, conditions: read-out: Fluorescence Assay IC16

Compound | IC16 [µg/mL]
CC(C)(C)NC(=O)c1ccccc1C[C@@H](O)[C@H](Cc1ccccc1)NC(=O)[C@H](N)CSCc1ccccc1 [Example 19B, [2R-(2R*, 3S*, 6S*)]-N-t-Butyl-2-[2-hydroxy-3-phenylmethyl-4-aza-5-oxo-6-amino-7-benzylthio]heptyl benzamide] | 1

Same assay, conditions: read-out: Fluorescence Assay IC30

Compound | IC30 [µg/mL]
CC(C)(C)NC(=O)c1ccccc1C[C@@H](O)[C@H](Cc1ccccc1)NC(=O)[C@H](CC(=O)OCc1ccccc1)NS(C)(=O)=O [Example 31C, [2R-(2R*,3S*,6S*)]-N-t-Butyl-2-[2-hydroxy-3-phenylmethyl-4-aza-5-oxo-6-N(methylsulfonyl)amino-7-benzyloxycarbonyl]heptyl benzamide] | 1 (≈ 1.6 µM)

Same assay, conditions: read-out: Fluorescence Assay IC50 (converted)

Compound | IC50 [nM]
CC(C)(C)NC(=O)c1ccccc1C[C@@H](O)[C@H](Cc1ccccc1)NC(=O)[C@@H](CC(=O)NCc1ccc2ccccc2n1)NS(C)(=O)=O [Example 11, [2R-(2R*, 3S*, 6R)]-N-t-butyl-2-[2-hydroxy-3-phenylmethyl-4-aza-5-oxo-6-N(methylsulfonyl)amino-8-oxo-9-aza-10-quinolin-2-yl]decyl benzamide] | 2.52
CC(C)(C)NC(=O)c1ccccc1C[C@@H](O)[C@H](Cc1ccccc1)NC(=O)[C@H](CC(N)=O)NS(=O)(=O)c1ccc2ccccc2c1 [Example 34, [2R-(2R*,3S*,6S*)]-N-t-Butyl-2-[2-hydroxy-3-phenylmethyl-4-aza-5-oxo-6-N (naphth-2-ylsulfonyl)amino-7-carbamoyl]heptyl benzamide] | 2.02
CC(C)(C)NC(=O)c1ccccc1C[C@@H](O)[C@H](Cc1ccccc1)NC(=O)[C@@H](C[S+]([O-])c1ccc2ccccc2n1)NS(C)(=O)=O (stereo partly drawn) [Example 23E, [2R-(2R*,3S*,6S*)]-N-t-Butyl-2-[2-hydroxy-3-phenylmethyl-4-aza-5-oxo-6-N(methylsulfonyl)amino-7-quinolin-2-ylsulfinyl]heptyl benzamide] | 4.06
CC(C)(C)NC(=O)c1ccccc1C[C@@H](O)[C@H](Cc1ccccc1)NC(=O)[C@H](N)CSc1ccc(F)cc1 [Example 37B, [2R-(2R*,3S*,6S*)]-N-t-Butyl-2-[2-hydroxy-3-phenylmethyl-4-aza-5-oxo-6-amino-7-(p-fluorophenylthio)]heptyl benzamide] | 5330
CC(C)(C)NC(=O)c1ccccc1C[C@@H](O)[C@H](Cc1ccccc1)NC(=O)[C@@H](CSc1ccc2ccccc2n1)NS(C)(=O)=O [Example 23C, [2R-(2R*,3S*,6S*)]-N-t-Butyl-2-[2-hydroxy-3-phenylmethyl-4-aza-5-oxo-6-N(methylsulfonyl)amino-7-quinolin-2-ylthio]heptyl benzamide] | 25.9
CC(C)(C)NC(=O)c1ccccc1C[C@@H](O)[C@H](Cc1ccccc1)NC(=O)[C@@H](CC(=O)NCc1ccccc1)NS(C)(=O)=O [Example 10, [2R-(2R*, 3S*, 6R*)]-N-t-butyl-2-[2-hydroxy-3-phenylmethyl-4-aza-5-oxo-6-N(methylsulfonyl)amino-8-oxo-8-N(benzyl)amino]octyl benzamide] | 4.34
CC(=O)N[C@H](CC(=O)OCc1ccccc1)C(=O)N[C@@H](Cc1ccccc1)[C@H](O)Cc1ccccc1C(=O)NC(C)(C)C [Example 1C, [2R-(2R*, 3S*, 6R*)1-N-t-Butyl-2-[2-hydroxy-3-phenylmethyl-4-aza-5-oxo-6-N(ethanoyl)amino-7-benzyloxycarbonyl]heptylbenzamide] | 56.1
CC(=O)N[C@H](CS(=O)(=O)c1ccccc1)C(=O)N[C@@H](Cc1ccccc1)[C@H](O)Cc1ccccc1C(=O)NC(C)(C)C [Example 20C, [2R-(2R*,3S*,6S*)]-N-t-Butyl-2-[2-hydroxy-3-phenylmethyl-4-aza-5-oxo-6-N(ethanoyl)amino-7-phenylsulfonyl]heptyl benzamide] | 4.88
CC(=O)N[C@H](CSc1ccc2ccccc2n1)C(=O)N[C@@H](Cc1ccccc1)[C@H](O)Cc1ccccc1C(=O)NC(C)(C)C [Example 24A, [2R-(2R*,3S*,6S*)]-N-t-Butyl-2-[2-hydroxy-3-phenylmethyl-4-aza-5-oxo-6-N(ethanoyl)amino-7-quinolin-2-ylthio]heptyl benzamide] | 3.75
CC(C)(C)NC(=O)c1ccccc1C[C@@H](O)[C@H](Cc1ccccc1)NC(=O)[C@H](CC(N)=O)NS(=O)(=O)c1cccc2cccnc12 [Example 30, [2R-(2R*,3S*,6S*)]-N-t-Butyl-2-[2-hydroxy-3-phenylmethyl-4-aza-5-oxo-6-N(quinolin-8-ylsulfonyl)amino-7-carbamoyl]heptyl benzamide] | 18.6
CC(C)(C)NC(=O)c1ccccc1C[C@@H](O)[C@H](Cc1ccccc1)NC(=O)[C@@H](CC(=O)OCc1ccccc1)NC(N)=O [Example 12, [2R-(2R*, 3S*, 6R*)]-N-t-butyl-2-[2-hydroxy-3-phenylmethyl-4-aza-5-oxo-6-N(carbamoyl)amino-7-benzyloxycarbonyl]heptyl benzamide] | 28.9
CC(=O)N[C@H](COCc1ccccc1)C(=O)N[C@@H](Cc1ccccc1)[C@H](O)Cc1ccccc1C(=O)NC(C)(C)C [Example 13C, [2R-(2R*, 3S*, 6R*)]-N-t-Butyl-2-[2-hydroxy-3-phenylmethyl-4-aza-5-oxo-6-N(ethanoyl)amino-7-benzyloxy]heptyl benzamide] | 230
CN(C)S(=O)(=O)N[C@H](CC(=O)OCc1ccccc1)C(=O)N[C@@H](Cc1ccccc1)[C@H](O)Cc1ccccc1C(=O)NC(C)(C)C [Example 5, [2R-(2R*, 3S *, 6R*)]-N-t-butyl-2-[2-hydroxy-3-phenylmethyl-4-aza-5-oxo-6-N(dimethylaminosulfonyl)amino-7-benzyloxycarbonyl]heptyl benzamide] | 8.58
CC(C)(C)NC(=O)c1ccccc1C[C@@H](O)[C@H](Cc1ccccc1)NC(=O)[C@@H](C[S+]([O-])c1ccccc1)NS(C)(=O)=O (stereo partly drawn) [Example 22E, [2R-(2R*,3S*,6S*)]-N-t-Butyl-2-[2-hydroxy-3-phenylmethyl-4-aza-5-oxo-6-N(methylsulfonyl)amino-7-phenylsulfinyl]heptyl benzamide] | 0.978
CC(=O)N[C@H](CC(=O)Nc1cnc2ccccc2c1)C(=O)N[C@@H](Cc1ccccc1)[C@H](O)Cc1ccccc1C(=O)NC(C)(C)C [Example 3, [2R-(2R*, 3S*, 6R*)]-N-t-butyl-2-[2-hydroxy-3-phenylmethyl-4-aza-5-oxo-6-N(ethanoyl)amine-8-oxo-8-N (quinolin-3-yl)amine]octyl benzamide] | 548
CC(C)(C)NC(=O)c1ccccc1C[C@@H](O)[C@H](Cc1ccccc1)NC(=O)[C@@H](COCc1ccccc1)NS(C)(=O)=O [Example 14, [2R-(2R*, 3S*, 6R*)]-N-t-Butyl-2-[2-hydroxy-3-phenylmethyl-4-aza-5-oxo-6-N (methylsulfonyl)amino-7-benzyloxy]heptyl benzamide] | 43.6
